In PubChem BioAssay AID1963422 (Molecular Pharmacology Branch, DTP, NCI, 2024):
pIC50: −log10 of the molar value. Values joined by “and” are separate entries in the source; they are usually repeats but may differ in a detail not shown here. Equal values may be shown once.

Test system: 463943-066-T-J2-PDC complex spheroid growth
Experiment: Anticancer human tumor 463943-066-T-J2-PDC patient-derived colon adenocarcinoma cell line growth inhibition [Asc]
Details: for viability, T/C: stronger effect = lower value
Summary of the method: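 Concentration series start at each agent's clinical Cmax, or at 10 microM when none is established, and drop in half-log steps; agents are applied alone or together to complex spheroids built with HUVEC and hMSC.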

[1] = curve of first compound, second compound 0.00949 µM
[2] = curve of first compound, second compound 0.03 µM
[3] = curve of first compound, second compound 0.0949 µM
[4] = curve of first compound, second compound 0.3 µM
[5] = curve of first compound, second compound 0.949 µM
[6] = curve of first compound, second compound 3 µM
[7] = second compound 0.00949 µM, first compound 0.00316 µM
[8] = second compound 0.00949 µM, first compound 0.01 µM
[9] = second compound 0.00949 µM, first compound 0.0316 µM
[10] = second compound 0.00949 µM, first compound 0.1 µM
[11] = second compound 0.00949 µM, first compound 0.316 µM
[12] = second compound 0.00949 µM, first compound 1 µM
[13] = second compound 0.03 µM, first compound 0.00316 µM
[14] = second compound 0.03 µM, first compound 0.01 µM
[15] = second compound 0.03 µM, first compound 0.0316 µM
[16] = second compound 0.03 µM, first compound 0.1 µM
[17] = second compound 0.03 µM, first compound 0.316 µM
[18] = second compound 0.03 µM, first compound 1 µM
[19] = second compound 0.0949 µM, first compound 0.00316 µM
[20] = second compound 0.0949 µM, first compound 0.01 µM
[21] = second compound 0.0949 µM, first compound 0.0316 µM
[22] = second compound 0.0949 µM, first compound 0.1 µM
[23] = second compound 0.0949 µM, first compound 0.316 µM
[24] = second compound 0.0949 µM, first compound 1 µM
[25] = second compound 0.3 µM, first compound 0.00316 µM
[26] = second compound 0.3 µM, first compound 0.01 µM
[27] = second compound 0.3 µM, first compound 0.0316 µM
[28] = second compound 0.3 µM, first compound 0.1 µM
[29] = second compound 0.3 µM, first compound 0.316 µM
[30] = second compound 0.3 µM, first compound 1 µM
[31] = second compound 0.949 µM, first compound 0.00316 µM
[32] = second compound 0.949 µM, first compound 0.01 µM
[33] = second compound 0.949 µM, first compound 0.0316 µM
[34] = second compound 0.949 µM, first compound 0.1 µM
[35] = second compound 0.949 µM, first compound 0.316 µM
[36] = second compound 0.949 µM, first compound 1 µM
[37] = second compound 3 µM, first compound 0.00316 µM
[38] = second compound 3 µM, first compound 0.01 µM
[39] = second compound 3 µM, first compound 0.0316 µM
[40] = second compound 3 µM, first compound 0.1 µM
[41] = second compound 3 µM, first compound 0.316 µM
[42] = second compound 3 µM, first compound 1 µM
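Note: compound exposure lasted 7 days.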
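Throughout, for viability, T/C: 100% = DMSO vehicle control wells.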

SMILES: COc1c(OCCCN2CCOCC2)ccc2c3n(c(=NC(=O)c4cnc(N)nc4)nc12)CCN3 + CCN1C(C(=O)NC23CCC(C(=O)O)(CC2)CC3)C(c2cccc(Cl)c2F)C2(C(=O)Nc3cc(Cl)ccc32)C12CCCCC2
- pIC50 [1]: 6.39
- pIC50 [2]: 6.57
- pIC50 [3]: 6.64
- pIC50 [4]: 7.15
- pIC50 [5]: 7.35
- pIC50 [6]: 7.22
- viability, T/C [7]: 89.5%
- viability, T/C [8]: 82.9%
- viability, T/C [9]: 74%
- viability, T/C [10]: 69.2%
- viability, T/C [11]: 51.2%
- viability, T/C [12]: 39.4%
- viability, T/C [13]: 95.3%
- viability, T/C [14]: 88.5%
- viability, T/C [15]: 71.5%
- viability, T/C [16]: 61.2%
- viability, T/C [17]: 50.3%
- viability, T/C [18]: 33.7%
- viability, T/C [19]: 87.3%
- viability, T/C [20]: 84.1%
- viability, T/C [21]: 71.4%
- viability, T/C [22]: 59.3%
- viability, T/C [23]: 47.4%
- viability, T/C [24]: 33.6%
- viability, T/C [25]: 73%
- viability, T/C [26]: 72.5%
- viability, T/C [27]: 61.9%
- viability, T/C [28]: 44.4%
- viability, T/C [29]: 37.1%
- viability, T/C [30]: 32%
- viability, T/C [31]: 68.5%
- viability, T/C [32]: 62.5%
- viability, T/C [33]: 53.4%
- viability, T/C [34]: 42.2%
- viability, T/C [35]: 35.1%
- viability, T/C [36]: 30.4%
- viability, T/C [37]: 65.3%
- viability, T/C [38]: 64.4%
- viability, T/C [39]: 53.7%
- viability, T/C [40]: 45.4%
- viability, T/C [41]: 39.1%
- viability, T/C [42]: 29.8%

SMILES: Cn1ncnc1[C@H]1c2n[nH]c(=O)c3cc(F)cc(c23)N[C@@H]1c1ccc(F)cc1 + CCN1C(C(=O)NC23CCC(C(=O)O)(CC2)CC3)C(c2cccc(Cl)c2F)C2(C(=O)Nc3cc(Cl)ccc32)C12CCCCC2
- pIC50 [1]: < 7.00
- pIC50 [2]: < 7.00
- pIC50 [3]: < 7.00
- pIC50 [4]: < 7.00
- pIC50 [5]: < 7.00
- pIC50 [6]: < 7.00
- viability, T/C (second compound 0.00949 µM, first compound 0.000316 µM): 102%
- viability, T/C (second compound 0.00949 µM, first compound 0.001 µM): 96.2%
- viability, T/C [7]: 106%
- viability, T/C [8]: 97.2%
- viability, T/C [9]: 100%
- viability, T/C [10]: 88.1%
- viability, T/C (second compound 0.03 µM, first compound 0.000316 µM): 98.7%
- viability, T/C (second compound 0.03 µM, first compound 0.001 µM): 98.6%
- viability, T/C [13]: 95.7%
- viability, T/C [14]: 98.2%
- viability, T/C [15]: 96.5%
- viability, T/C [16]: 90.1%
- viability, T/C (second compound 0.0949 µM, first compound 0.000316 µM): 101%
- viability, T/C (second compound 0.0949 µM, first compound 0.001 µM): 89.1%
- viability, T/C [19]: 89.8%
- viability, T/C [20]: 89.6%
- viability, T/C [21]: 92.8%
- viability, T/C [22]: 79.1%
- viability, T/C (second compound 0.3 µM, first compound 0.000316 µM): 85.4%
- viability, T/C (second compound 0.3 µM, first compound 0.001 µM): 85.3%
- viability, T/C [25]: 85.7%
- viability, T/C [26]: 85.6%
- viability, T/C [27]: 81.5%
- viability, T/C [28]: 79%
- viability, T/C (second compound 0.949 µM, first compound 0.000316 µM): 75.4%
- viability, T/C (second compound 0.949 µM, first compound 0.001 µM): 76.1%
- viability, T/C [31]: 72.5%
- viability, T/C [32]: 77.9%
- viability, T/C [33]: 75.4%
- viability, T/C [34]: 76.3%
- viability, T/C (second compound 3 µM, first compound 0.000316 µM): 71.1%
- viability, T/C (second compound 3 µM, first compound 0.001 µM): 70.2%
- viability, T/C [37]: 75.3%
- viability, T/C [38]: 67.4%
- viability, T/C [39]: 73.2%
- viability, T/C [40]: 74%

SMILES: C#Cc1c(F)ccc2cc(O)cc(-c3ncc4c(N5CC6CCC(C5)N6)nc(OCC56CCCN5CC(F)C6)nc4c3F)c12 (stereo not drawn) + CCN1C(C(=O)NC23CCC(C(=O)O)(CC2)CC3)C(c2cccc(Cl)c2F)C2(C(=O)Nc3cc(Cl)ccc32)C12CCCCC2
- pIC50 [1]: < 5.00
- pIC50 [2]: < 5.00
- pIC50 [3]: < 5.00
- pIC50 [4]: < 5.00
- pIC50 [5]: < 5.00
- pIC50 [6]: < 5.00
- viability, T/C [9]: 94.4%
- viability, T/C [10]: 99.3%
- viability, T/C [11]: 94.3%
- viability, T/C [12]: 101%
- viability, T/C (second compound 0.00949 µM, first compound 3.16 µM): 108%
- viability, T/C (second compound 0.00949 µM, first compound 10 µM): 88.3%
- viability, T/C [15]: 102%
- viability, T/C [16]: 90.5%
- viability, T/C [17]: 94.1%
- viability, T/C [18]: 101%
- viability, T/C (second compound 0.03 µM, first compound 3.16 µM): 103%
- viability, T/C (second compound 0.03 µM, first compound 10 µM): 82.5%
- viability, T/C [21]: 91.5%
- viability, T/C [22]: 88.8%
- viability, T/C [23]: 94.2%
- viability, T/C [24]: 93%
- viability, T/C (second compound 0.0949 µM, first compound 3.16 µM): 91.7%
- viability, T/C (second compound 0.0949 µM, first compound 10 µM): 94.1%
- viability, T/C [27]: 88.4%
- viability, T/C [28]: 81.6%
- viability, T/C [29]: 87%
- viability, T/C [30]: 83%
- viability, T/C (second compound 0.3 µM, first compound 3.16 µM): 83.1%
- viability, T/C (second compound 0.3 µM, first compound 10 µM): 85.4%
- viability, T/C [33]: 74%
- viability, T/C [34]: 73%
- viability, T/C [35]: 78.8%
- viability, T/C [36]: 77.9%
- viability, T/C (second compound 0.949 µM, first compound 3.16 µM): 75.3%
- viability, T/C (second compound 0.949 µM, first compound 10 µM): 71.2%
- viability, T/C [39]: 70%
- viability, T/C [40]: 71.8%
- viability, T/C [41]: 70.5%
- viability, T/C [42]: 73.3%
- viability, T/C (second compound 3 µM, first compound 3.16 µM): 72.1%
- viability, T/C (second compound 3 µM, first compound 10 µM): 67.6%

SMILES: C=C(F)C(=O)N1CCN(c2nc(OCC3CCCN3C)nc3c2CCN(c2cccc4cccc(Cl)c24)C3)CC1CC#N (stereo not drawn)
- viability, T/C (compound 0.0316 µM): 98.4% and 102%
- viability, T/C (compound 0.1 µM): 102% and 94.9%
- viability, T/C (compound 0.316 µM): 102%
- viability, T/C (compound 1 µM): 109% and 106%
- viability, T/C (compound 3.16 µM): 95.6%
- viability, T/C (compound 10 µM): 18.6% and 29.3%
- pIC50 (curve of compound): 5.20 and 5.15
